From patent US12643887B2, “Heterocyclic derivatives with cardiomyocyte proliferation activity for treatment of heart diseases” (Tongji University, priority 2019, dated 2026)

Key:
[1] = target: T1, human GSK3 beta (Homo sapiens, UniProt P49841); test: GSK3 beta enzyme assay (ADP-Glo); type: biochemical; conditions: ATP 25 μM, read-out: GSK3b IC50
T1 construct: Recombinant full-length human GSK3 beta (expressed in Sf9 insect cells with an N-terminal His tag); His (N); purchased SignalChem G09-10H; host or cells: Sf9 insect cells
Description: 1. GSK3 Beta Enzyme Assay
The ability of compounds to inhibit human GSK3 beta kinase activities was determined using a commercially available ADP-Glo™ Kinase Assay kit (Promega, Cat #V9102) according to the manufacturer's protocol. The ADP-Glo™ Kinase Assay is a luminescent ADP detection assay that provides a universal, homogeneous, high-throughput screening method to measure kinase activity by quantifying the amount of ADP produced during a kinase reaction. The ADP-Glo™ Kinase Assay can be used to monitor the activity of virtually any ADP-generating enzymes (e.g., kinases or ATPases).
Recombinant full-length human GSK3 beta (expressed in Sf9 insect cells with an N-terminal His tag) was purchased from SignalChem (Cat #G09-10H). The GSK3 substrate peptide (sequence: […](pS)EDEEE) was purchased from SignalChem (Cat #G50-58). This assay, run in a 384-well plate format, is a generic method for measuring kinase activities using an ADP-Glo Kinase Assay Kit. The basic assay procedure involves two steps: (1) Enzymatic step: inhibitors are incubated with the kinase and then ATP (included in the ADP-Glo Kinase Assay Kit) and the GSK3 substrate peptide are added to start the enzymatic reaction; (2) Detection step: after the kinase reaction, first ADP-Glo™ Reagent is added to terminate the kinase reaction and deplete the remaining ATP. Second, the Kinase Detection Reagent is added to simultaneously convert ADP to ATP and allow the newly synthesized ATP to be measured using a luciferase/luciferin reaction. The light generated is measured using a luminometer.
(§1) Briefly, GSK3 beta (4 nM) in the enzymatic buffer solutions (40 mM Tris, pH 7.5, 20 mM MgCl2, 0.1 mg/ml BSA, 50 μM DTT) were mixed with various concentrations of inhibitors (dissolved in 100% DMSO). These solutions were incubated for 30 minutes at 25° C., and subsequently a mixture of substrate peptide and ATP was added with the final peptide and ATP concentrations at 13 μM and 25 μM, respectively. The final reaction mixture of enzyme-substrate-ATP-compound was incubated for 60 minutes at 25° C.
Afterwards ADP-Glo™ Reagent was added and the mixture was incubated at 25° C. for 60 minutes. Then Kinase Detection Reagent was added and the final mixture was incubated at 25° C. for 60 minutes. The luminescence signal of the final solution was measured on an Envision instrument (PerkinElmer). The percent (%) inhibition at each concentration of a compound is calculated relative to the luminescence signal in the Max and Min control wells contained within each assay plate. […] The concentrations and percent inhibition values for a test compound are plotted and the concentration of the compound required to achieve 50% inhibition (IC50) is determined with a four-parameter logistic dose response equation.

[2] = target: T2, human HIPK1 (Homo sapiens, UniProt Q86Z02); test: HIPK1 enzyme assay (ADP-Glo); type: biochemical; conditions: ADP-Glo, ATP 5 μM; read-out: HIPK1 IC50
T2 construct: Recombinant human HIPK1 (156-555); GST (N); purchased SignalChem H03-11G; host or cells: Sf9 insect cells
Description: The ability of compounds to inhibit human HIPK1 kinase activities was determined using a commercially available ADP-Glo™ Kinase Assay kit (Promega, Cat #V9102) according to the manufacturer's protocol.
Recombinant human HIPK1 (156-555) (expressed in Sf9 insect cells with an N-terminal GST tag) was purchased from SignalChem (Cat #H03-11G). Recombinant full length human MBP (expressed in E. Coli cells with an N-terminal GST tag) was purchased from SignalChem (Cat #M42-54G). This assay, run in a 384-well plate format, is a generic method for measuring kinase activities using an ADP-Glo Kinase Assay Kit. The basic assay procedure involves two steps: (1) Enzymatic step: inhibitors are incubated with the kinase and then ATP (included in the ADP-Glo Kinase Assay Kit) and the MBP protein are added to start the enzymatic reaction; (2) Detection step: after the kinase reaction, first ADP-Glo™ Reagent is added to terminate the kinase reaction and deplete the remaining ATP. Second, the Kinase Detection Reagent is added to simultaneously convert ADP to ATP and allow the newly synthesized ATP to be measured using a luciferase/luciferin reaction. The light generated is measured using a luminometer.
as §1, with “Briefly, HIPK1” for “Briefly, GSK3 beta”, “at 0.05 mg/ml” for “at 13 μM”, “and 5” for “and 25”, “for 90” for “for 60”
Afterwards ADP-Glo™ Reagent was added and the mixture was incubated at 25° C. for 60 minutes. Then Kinase Detection Reagent was added, and the final mixture was incubated at 25° C. for 60 minutes. The luminescence signal of the final solution was measured on an Envision instrument (PerkinElmer). The percent (%) inhibition at each concentration of a compound is calculated relative to the luminescence signal in the Max and Min control wells contained within each assay plate. […] The concentrations and percent inhibition values for a test compound are plotted and the concentration of the compound required to achieve 50% inhibition (IC50) is determined with a four-parameter logistic dose response equation.

T2 sequence (Q86Z02 156-555): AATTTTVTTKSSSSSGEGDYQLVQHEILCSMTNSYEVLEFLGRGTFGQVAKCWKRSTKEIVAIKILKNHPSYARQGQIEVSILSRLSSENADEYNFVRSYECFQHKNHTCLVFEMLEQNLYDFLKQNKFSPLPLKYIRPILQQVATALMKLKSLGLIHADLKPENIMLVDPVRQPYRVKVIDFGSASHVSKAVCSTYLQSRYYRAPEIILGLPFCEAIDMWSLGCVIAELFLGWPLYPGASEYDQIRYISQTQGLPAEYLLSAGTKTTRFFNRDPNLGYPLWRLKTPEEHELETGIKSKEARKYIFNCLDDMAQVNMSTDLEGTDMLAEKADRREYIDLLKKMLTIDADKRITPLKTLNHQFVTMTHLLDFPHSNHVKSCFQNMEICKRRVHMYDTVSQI
T1 sequence (P49841 whole entry): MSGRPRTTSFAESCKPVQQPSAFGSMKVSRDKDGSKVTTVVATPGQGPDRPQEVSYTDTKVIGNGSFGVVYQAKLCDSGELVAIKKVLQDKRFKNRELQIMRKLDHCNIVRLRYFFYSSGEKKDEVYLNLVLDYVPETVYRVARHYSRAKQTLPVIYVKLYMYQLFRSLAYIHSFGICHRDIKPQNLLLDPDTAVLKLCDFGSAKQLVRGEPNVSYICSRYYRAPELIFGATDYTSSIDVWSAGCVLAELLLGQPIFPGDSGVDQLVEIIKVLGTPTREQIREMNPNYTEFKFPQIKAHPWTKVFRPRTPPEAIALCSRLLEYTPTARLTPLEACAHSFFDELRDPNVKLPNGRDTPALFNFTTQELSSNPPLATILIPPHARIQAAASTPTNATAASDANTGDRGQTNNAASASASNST

Row | SMILES | IC50 [1] [µM] | IC50 [2] [µM]
1 | O=C1NC(Nc2ccc3ncsc3c2)=N/C1=C\c1ccc2ncsc2c1 [Example 48, (Z)-2-(benzo[d]thiazol-6-ylamino)-5-(benzo[d]thiazol-6-ylmethylene)-3,5-dihydro-4H-imidazol-4-one] | > 10 | 0.1 to 1
2 | CC(C)NC1=N/C(=C\c2ccc3scnc3c2)C(=O)N1 [Example 49, (Z)-5-(benzo[d]thiazol-5-ylmethylene)-2-(isopropylamino)-3,5-dihydro-4H-imidazol-4-one] | > 10 | > 10
3 | O=C1NC(NC23CC4CC(CC(C4)C2)C3)=N/C1=C\c1ccc2scnc2c1 [Example 50, (Z)-2-(adamantan-1-ylamino)-5-(benzo[d]thiazol-5-ylmethylene)-3,5-dihydro-4H-imidazol-4-one] | > 10 | > 10
4 | O=C1NC(Nc2ccccc2)=N/C1=C\c1ccc2[nH]ccc2c1 [Example 51, (Z)-5-((1H-indol-5-yl)methylene)-2-(phenylamino)-3,5-dihydro-4H-imidazol-4-one] | > 10 | > 10
5 | O=C1NC(Nc2ccccc2)=N/C1=C\c1ccc2occc2c1 [Example 52, (Z)-5-(benzofuran-5-ylmethylene)-2-(phenylamino)-3,5-dihydro-4H-imidazol-4-one] | > 10 | > 10
6 | O=C1NC(Nc2ccccc2)=N/C1=C\c1ccc2ncccc2c1 [Example 53, (Z)-2-(phenylamino)-5-(quinolin-6-ylmethylene)-3,5-dihydro-4H-imidazol-4-one] | > 10 | > 10
7 | O=C1NC(Nc2ccccc2)=N/C1=C\c1ccc2cn[nH]c2c1 [Example 54, (Z)-5-((1H-indazol-6-yl)methylene)-2-(phenylamino)-3,5-dihydro-4H-imidazol-4-one] | > 10 | > 10
8 | O=C1NC(Nc2ccccc2)=N/C1=C\c1ccc2[nH]ncc2c1 [Example 55, (Z)-5-((1H-indazol-5-yl)methylene)-2-(phenylamino)-3,5-dihydro-4H-imidazol-4-one] | 0.1 to 1 | > 10
9 | O=C1NC(Nc2ccccc2)=N/C1=C\c1ccc2nn[nH]c2c1 [Example 56, (Z)-5-((1H-benzo[d][1,2,3]triazol-6-yl)methylene)-2-(phenylamino)-3,5-dihydro-4H-imidazol-4-one] | 1 to 10 | > 10
10 | O=C1NC(Nc2ccc3ncsc3c2)=N/C1=C\c1ccc2scnc2c1 [Example 57, (Z)-5-(benzo[d]thiazol-5-ylmethylene)-2-(benzo[d]thiazol-6-ylamino)-3,5-dihydro-4H-imidazol-4-one] | > 10 | < 0.1
11 | O=C1NC(Nc2ccc3ncsc3c2)=N/C1=C\c1ccc2[nH]ccc2c1 [Example 58, (Z)-5-((1H-indol-5-yl)methylene)-2-(benzo[d]thiazol-6-ylamino)-3,5-dihydro-4H-imidazol-4-one] | > 10 | > 10

Continued, values first:

Row | IC50 [1] [µM] | IC50 [2] [µM] | SMILES
12 | > 10 | > 10 | O=C1NC(Nc2ccc3ncsc3c2)=N/C1=C\c1ccc2occc2c1 [Example 59, (Z)-2-(benzo[d]thiazol-6-ylamino)-5-(benzofuran-5-ylmethylene)-3,5-dihydro-4H-imidazol-4-one]
13 | > 10 | > 10 | O=C1NC(Nc2ccc3ncsc3c2)=N/C1=C\c1ccc2cccnc2c1 [Example 60, (Z)-2-(benzo[d]thiazol-6-ylamino)-5-(quinolin-7-ylmethylene)-3,5-dihydro-4H-imidazol-4-one]
14 | 0.1 to 1 | 0.1 to 1 | Cn1cnc2cc(NC3=N/C(=C\c4ccc5ncsc5c4)C(=O)N3)ccc21 [Example 61, (Z)-5-(benzo[d]thiazol-6-ylmethylene)-2-((1-methyl-1H-benzo[d]imidazol-5-yl)amino)-3,5-dihydro-4H-imidazol-4-one]
15 | > 10 | > 10 | O=C1NC(Nc2ccc3ncsc3c2)=N/C1=C\c1ccc2cc[nH]c2c1 [Example 63, (Z)-5-((1H-indol-6-yl)methylene)-2-(benzo[d]thiazol-6-ylamino)-3,5-dihydro-4H-imidazol-4-one]
16 | 0.1 to 1 | 0.1 to 1 | O=C1NC(Nc2ccc3[nH]ccc3c2)=N/C1=C\c1ccc2ncsc2c1 [Example 69, (Z)-2-((1H-indol-5-yl)amino)-5-(benzo[d]thiazol-6-ylmethylene)-3,5-dihydro-4H-imidazol-4-one]
17 | > 10 | > 10 | CN(C1=N/C(=C\c2ccc3c(c2)OCO3)C(=O)N1)c1ccc2ncsc2c1 [Example 70, (Z)-5-(benzo[d][1,3]dioxol-5-ylmethylene)-2-(benzo[d]thiazol-6-yl(methyl)amino)-3,5-dihydro-4H-imidazol-4-one]
18 | > 10 | > 10 | Cn1cnc2cc(/C=C3\N=C(Nc4ccccc4)NC3=O)ccc21 [Example 71, (Z)-5-((1-methyl-1H-benzo[d]imidazol-5-yl)methylene)-2-(phenylamino)-3,5-dihydro-4H-imidazol-4-one]
19 | > 10 | > 10 | O=C1NC(Nc2ccccc2)=N/C1=C\c1ccc2sccc2c1 [Example 72, (Z)-5-(benzo[b]thiophen-5-ylmethylene)-2-(phenylamino)-3,5-dihydro-4H-imidazol-4-one]
20 | > 10 | > 10 | O=C1NC(Nc2ccccc2)=N/C1=C\c1ccc2cc[nH]c2c1 [Example 73, (Z)-5-((1H-indol-6-yl)methylene)-2-(phenylamino)-3,5-dihydro-4H-imidazol-4-one]
21 | > 10 | > 10 | O=C1NC(Nc2ccc3ncsc3c2)=N/C1=C\c1ccc2c(c1)OCCO2 [Example 74, (Z)-2-(benzo[d]thiazol-6-ylamino)-5-((2,3-dihydrobenzo[b][1,4]dioxin-6-yl)methylene)-3,5-dihydro-4H-imidazol-4-one]
22 | 0.1 to 1 | < 0.1 | Cn1cnc2ccc(/C=C3\N=C(Nc4ccc5ncsc5c4)NC3=O)cc21 [Example 75, (Z)-2-(benzo[d]thiazol-6-ylamino)-5-((1-methyl-1H-benzo[d]imidazol-6-yl)methylene)-3,5-dihydro-4H-imidazol-4-one]
23 | 0.1 to 1 | 0.1 to 1 | O=C1NC(Nc2ccc3ncsc3c2)=N/C1=C\c1ccc2nc[nH]c2c1 [Example 76, (Z)-5-((1H-benzo[d]imidazol-6-yl)methylene)-2-(benzo[d]thiazol-6-ylamino)-3,5-dihydro-4H-imidazol-4-one]
